Patent US20120010161A1, “NOVEL AZAPEPTIDE OR AZAPEPTIDOMIMETIC COMPOUNDS INHIBITING BCRP AND/OR P-GP” (CENTRE NATIONAL DE LA RECHERCHE SCIENTIFIQUE, priority 2009, published 2012)

Tested on: HEK-293 cells
Assay: Cytotoxicity on cell growth, MTT test
Type: cell-based, human
Conditions: 72 hours; for harmlessness / toxicity on HEK-293 cells: cells expressing or not ABCG2
Method: The cells are seeded (10 000 cells/well) in 96-well plates and incubated for 24 hours at 37° C. under 5% CO2. Varied concentrations of mitoxantrone (from 0 to 20 μM in a constant final volume of 100 μL) are then added with an equal volume of each of the test compounds. The cells are then left to divide for 72 hours. The cytotoxicity is evaluated colorimetrically with 3-(4,5-dimethylthiazol-2-yl)-2,5-diphenyltetrazolium bromide (MTT).
Increasing concentrations of compound (IA.2) are applied to HEK-293 cells expressing or not expressing ABCG2, and whose residual vitality is evaluated after 72 hours of treatment by an MTT test. The results are illustrated in FIG. 4, in which the cells expressing ABCG2 are represented by empty circles, and those not expressing it by solid circles. […] This absence of toxicity is observed even at a very high concentration such as 40 μM, which corresponds to 40 times the IC50 value.
(§1) Increasing concentrations of compound (IA.1) are applied to HEK-293 cells expressing or not expressing ABCG2, and whose residual vitality is evaluated after 72 hours of treatment by an MTT test. The results are illustrated in FIG. 6, in which the cells expressing ABCG2 are represented by empty circles, and those not expressing it by solid circles.
as §1, with “(IB.1)” for “(IA.1)”, “8,” for “6,”, “circles” for “circles,”
as §1, with “(IB.11)” for “(IA.1)”, “10,” for “6,”

SMILES	harmlessness / toxicity on HEK-293 cells	cytotoxicity on HEK-293 cells (up to 40 μM (40 times the IC50), expressing or not ABCG2)	cytotoxicity on HEK-293 cells (at 40 times the IC50)	cytotoxic effect on HEK-293 cells (up to 20 times its IC50, expressing or not ABCG2)	cytotoxic effect on HEK-293 cells (concentration range tested, more than 80 times its IC50, expressing or not ABCG2)	cytotoxic effect on HEK-293 cells (concentration range tested, more than 10 times its IC50, expressing or not ABCG2)
CC(C)(C)OC(=O)NN(C(=O)N[C@@H](CCCCNC(=O)OCc1ccccc1)C(=O)OC(C)(C)C)c1cccc(C(=O)OCc2ccccc2)c1 [IA.2, tert-Butyl ester of (2S)-6-(benzyloxycarbonylamino)-2-[1-(3′-(benzyloxycarbonyl)phenyl)-2-(tert-butoxycarbonyl)hydrazino-carbonylamino]hexanoic acid]	harmlessness	absolutely not cytotoxic	–	–	–	–
CC(C)(C)OC(=O)N[C@H](CNN(CCCCCCNC(=O)OCc1ccccc1)C(=O)OC(C)(C)C)CC(=O)OCc1ccccc1 [IB.1, Benzyl ester of (3S)-4-[2-(6-benzyloxycarbonylaminohexyl)-2-tert-butoxycarbonylhydrazino]-3-tert-butoxycarbonylaminobutyric acid]	harmlessness	–	relative cytotoxicity	no cytotoxic effect	–	–
CC(C)(C)OC(=O)N[C@H](CNN(CCCCCCNC(=O)OCc1ccccc1)C(=O)OCc1ccccc1)CC(=O)OCc1ccccc1 [IB.11, Benzyl ester of (3S)-4-[2-benzyloxycarbonyl-2-(6-benzyloxycarbonylaminohexyl)hydrazino]-3-tert-butoxycarbonyl-aminobutyric acid]	harmlessness	–	–	–	no cytotoxic effect	–
CC(C)(C)OC(=O)NN(C(=O)N[C@@H](CCCCNC(=O)OCc1ccccc1)C(=O)OC(C)(C)C)c1ccccc1C(=O)OCc1ccccc1 [IA.1, tert-Butyl ester of (2S)-6-(benzyloxycarbonylamino)-2-[1-(2′-(benzyloxycarbonyl)phenyl)-2-(tert-butoxycarbonyl)hydrazino-carbonylamino]hexanoic acid]	harmlessness	–	–	–	–	no cytotoxic effect
